Literature values as cited in US20210361602A1, “DOSING METHODS FOR TREATING INFLAMMATORY BOWEL CONDITIONS” (priority 2020, published 2021).

Legend:
[1] = enema by prior methods, two patients; Campieri et al. FIG. 4
[2] = orally administered; De Vos et al.

systemic (plasma) levels of 5-ASA after bowel movement [1]: dramatically lower | levels of 5-ASA in the colon after laxative or colonic lavage [2]: decreased
SMILES: Nc1ccc(O)c(C(=O)O)c1 [5-ASA, 5-aminosalicylic acid]
